What was measured:
[1] = Stability in saline / radiolabeling solution at room temperature (RCP by radio-HPLC); assay type: physicochemical; conditions: 4 h
Experimental: (§1) The complexes were determined by ITLC/SG of the ACD system and radio-HPLC. The ITLC/SG trip was cut into 10 equal parts, and radioactive counting of ITLC strips was determined by a γ-counter. ITLC results of both complexes were as follows: in ACD solution, [^99mTc]Tc-CN5FA and [^99mTc]Tc-CNPFA stayed at the origin (Rf = 0–0.1), while ^99mTcO4^− (Rf = 0.9–1.0) and ^99mTcO2·nH2O (Rf = 0.8–1.0) were moved to the front. Radio-HPLC was analyzed by a mobile phase system consisting of 0.1% TFA water (solvent A) and 0.1% TFA acetonitrile (solvent B) with a gradient of 0−2 min 10% B, 2−5 min 10%−90% B, 10−20 min 90% B, and 20−25 min 90%−10% B (system B) at a flow rate of 1 mL/min. All experiments were performed in triplicate.
(§2) The stability of [^99mTc]Tc-CN5FA and [^99mTc]Tc-CNPFA in vitro was evaluated by measuring the RCP of the complexes. Stability in saline was achieved by holding the solution at room temperature for 4 h. Stability in the serum was achieved by mixing 100 μL of [^99mTc]Tc-CN5FA or [^99mTc]Tc-CNPFA with 200 μL of mouse serum at 37 °C for 4 h. After precipitation using acetonitrile, centrifugation, and concentration, the solutions were analyzed by radio-HPLC.

[2] = Stability in mouse serum at 37 °C (RCP by radio-HPLC); assay type: in vitro ADME; conditions: 4 h
Experimental: as §1, §2

[3] = Partition coefficient, 1-octanol / phosphate buffer pH 7.4; assay type: physicochemical; conditions: 1-octanol / phosphate buffer 0.025 M
Experimental: The partition coefficient was measured as follows: 1.9 mL of phosphate buffer solution (0.025 M, pH 7.4), 2.0 mL of 1-octanol, and 0.1 mL of ^99mTc-CN5FA or ^99mTc-CNPFA solution were added to the centrifuge tube, and the sample was swirled for 5 min and centrifuged for 5 min (3000 r/min). Then, the radioactivity counts of the two phases were measured by taking 0.1 mL from the organic phase and the water phase. The partition coefficient P was calculated. The final partition coefficient was expressed as log P ± SD.

[4] = target: T1, folate receptor (KB cells) (Homo sapiens, UniProt P15328); assay: In vitro competitive binding with KB cells; conditions: 37 °C, 2 h, competitive binding with inhibitor
T1 construct: endogenous in cells; host or cells: KB cells
T1 sequence (P15328 25-257): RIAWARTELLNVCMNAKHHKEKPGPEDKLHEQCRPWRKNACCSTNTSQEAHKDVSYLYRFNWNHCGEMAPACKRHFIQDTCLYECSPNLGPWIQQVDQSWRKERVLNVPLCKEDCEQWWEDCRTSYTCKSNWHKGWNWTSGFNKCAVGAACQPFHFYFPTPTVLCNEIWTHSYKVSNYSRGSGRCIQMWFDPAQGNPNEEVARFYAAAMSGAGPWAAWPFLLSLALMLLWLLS
Experimental: KB cells were cultured with FFRPMI 1640 medium 24 h in advance on a 48-well plate with 5 × 10^4 cells per well. The labeling solution was diluted to 5 μCi/mL with the same medium after growing, and the inhibitor was prepared at different concentrations. The 48-well plates were divided into eight groups, and each group was incubated with 100 μL of inhibitor solution, 100 μL of diluted labeled solution (5 μCi/mL), and 200 μL of medium at 37 °C for 2 h.
After removing the cell plate from the incubator, the medium was removed, and the cells were washed with PBS (0.1 M, pH 7.4). The washed cells were lysed with NaOH (1 M) for 5 min. Pyrolysates were collected in the hoses, and the radioactivity count of each hose was measured by a γ-counter. The data were analyzed with GraphPad Prism 5.0 and nonlinearly fit to the log IC50 ± SD value.

KB tumor-bearing mice [5] = assay: Biodistribution study in KB tumor-bearing mice; assay type: in vivo, BALB/c nude mice; conditions: for Tumor uptake: KB tumor
Experimental: The biodistribution experiments were divided into normal groups and inhibition groups (n = 3), in which the inhibition group was injected with inhibitor (about 4 × 10^4 µg/kg) 30 min in advance. The KB tumor-bearing mice were decapitated 30 and 120 min after the tail vein injection of 0.1 mL labeled solution (about 7.4 × 10^4 Bq). The heart, liver, lung, kidney, spleen, stomach, bone, muscle, intestine, tumor, blood, and other related tissues and organs were wiped clean and weighed, and the radioactivity count was measured. Each tissue per gram of injection dose (%ID/g) was calculated.

KB tumor-bearing mice [6] = assay: SPECT/CT imaging study in KB tumor-bearing mice; assay type: in vivo, BALB/c nude mice; conditions: 2 h post injection, about 18.5 MBq i.v.
Experimental: The SPECT/CT imaging experiments were also divided into a normal group and an inhibition group (n = 3). The labeled solution (about 18.5 MBq) was injected into the tail vein of nude mice bearing KB tumor. The inhibition group was injected with 100 µg FA (about 4 × 10^4 µg/kg) 30 min in advance. After 2 h, the SPECT/CT scan was performed in anesthetized mice by using 1.5% isoflurane. The SPECT acquisition (peak value 140 keV, 20% width, 90° rotation, MMP 919 Collimator) was performed after 4 min of CT scanning (512 views, 2 × 2 binding, 75 kV, exposure time 230 ms). SPECT/CT images were made using HiSPECT software and vivoquant 2.5 software.

[7] = Solubility of the ligand in the labeling solution; assay type: physicochemical; conditions: labeling solution under weak acid
[8] = 2 h p.i., block: FA about 4 × 10^4 µg/kg 30 min in advance

Structure (SMILES): [99Tc+].[C-]#[N+]CCCCCC(=O)NCCNC(=O)CC[C@H](NC(=O)c1ccc(NCc2cnc3nc(N)[nH]c(=O)c3n2)cc1)C(=O)O.[C-]#[N+]CCCCCC(=O)NCCNC(=O)CC[C@H](NC(=O)c1ccc(NCc2cnc3nc(N)[nH]c(=O)c3n2)cc1)C(=O)O.[C-]#[N+]CCCCCC(=O)NCCNC(=O)CC[C@H](NC(=O)c1ccc(NCc2cnc3nc(N)[nH]c(=O)c3n2)cc1)C(=O)O.[C-]#[N+]CCCCCC(=O)NCCNC(=O)CC[C@H](NC(=O)c1ccc(NCc2cnc3nc(N)[nH]c(=O)c3n2)cc1)C(=O)O.[C-]#[N+]CCCCCC(=O)NCCNC(=O)CC[C@H](NC(=O)c1ccc(NCc2cnc3nc(N)[nH]c(=O)c3n2)cc1)C(=O)O.[C-]#[N+]CCCCCC(=O)NCCNC(=O)CC[C@H](NC(=O)c1ccc(NCc2cnc3nc(N)[nH]c(=O)c3n2)cc1)C(=O)O [[^99mTc]Tc-CN5FA]
- RCP after incubation [1]: more than 95%
- RCP after incubation [2]: more than 95%
- log P [3]: −1.92 ± 0.15
- IC50 [4]: 37.9 ± 0.41 nM
- T/B (tumor/blood ratio) (KB tumor-bearing mice [5]; 0.5 h p.i.): 1.28
- T/M (tumor/muscle ratio) (KB tumor-bearing mice [5]; 0.5 h p.i.): 1.76
- Blood uptake (KB tumor-bearing mice [5]; 0.5 h p.i., i.v., n = 3): 2.36 ± 0.10 %ID/g
- Bone uptake (KB tumor-bearing mice [5]; 0.5 h p.i., i.v., n = 3): 1.03 ± 0.09 %ID/g
- Heart uptake (KB tumor-bearing mice [5]; 0.5 h p.i., i.v., n = 3): 2.60 ± 0.16 %ID/g
- Intestines uptake (KB tumor-bearing mice [5]; 0.5 h p.i., i.v., n = 3): 2.35 ± 0.79 %ID/g
- Kidney uptake (KB tumor-bearing mice [5]; 0.5 h p.i., i.v., n = 3): 47.20 ± 2.99 %ID/g
- Liver uptake (KB tumor-bearing mice [5]; 0.5 h p.i., i.v., n = 3): 13.91 ± 1.27 %ID/g
- Lung uptake (KB tumor-bearing mice [5]; 0.5 h p.i., i.v., n = 3): 2.88 ± 0.09 %ID/g
- Muscle uptake (KB tumor-bearing mice [5]; 0.5 h p.i., i.v., n = 3): 1.72 ± 0.10 %ID/g
- Spleen uptake (KB tumor-bearing mice [5]; 0.5 h p.i., i.v., n = 3): 3.07 ± 0.03 %ID/g
- Stomach uptake (KB tumor-bearing mice [5]; 0.5 h p.i., i.v., n = 3): 2.17 ± 0.70 %ID/g
- Thyroid uptake (KB tumor-bearing mice [5]; 0.5 h p.i., i.v., n = 3): 0.05 ± 0.00 %ID
- T/M (tumor/muscle ratio) (KB tumor-bearing mice [5]; 2 h p.i.): 1.91
- Blood uptake (KB tumor-bearing mice [5]; [8]): 1.05 ± 0.08 %ID/g
- Bone uptake (KB tumor-bearing mice [5]; [8]): 1.02 ± 0.18 %ID/g
- Heart uptake (KB tumor-bearing mice [5]; [8]): 0.84 ± 0.05 %ID/g
- Intestines uptake (KB tumor-bearing mice [5]; [8]): 1.39 ± 0.15 %ID/g
- Kidney uptake (KB tumor-bearing mice [5]; [8]): 35.40 ± 4.08 %ID/g
- Liver uptake (KB tumor-bearing mice [5]; [8]): 10.22 ± 0.43 %ID/g
- Lung uptake (KB tumor-bearing mice [5]; [8]): 2.27 ± 0.16 %ID/g
- Muscle uptake (KB tumor-bearing mice [5]; [8]): 0.61 ± 0.10 %ID/g
- Spleen uptake (KB tumor-bearing mice [5]; [8]): 4.52 ± 0.38 %ID/g
- Stomach uptake (KB tumor-bearing mice [5]; [8]): 1.70 ± 0.16 %ID/g
- Thyroid uptake (KB tumor-bearing mice [5]; [8]): 0.03 ± 0.00 %ID
- Blood uptake (KB tumor-bearing mice [5]; 2 h p.i., i.v., n = 3): 1.08 ± 0.03 %ID/g
- Bone uptake (KB tumor-bearing mice [5]; 2 h p.i., i.v., n = 3): 0.87 ± 0.16 %ID/g
- Heart uptake (KB tumor-bearing mice [5]; 2 h p.i., i.v., n = 3): 2.29 ± 0.26 %ID/g
- Intestines uptake (KB tumor-bearing mice [5]; 2 h p.i., i.v., n = 3): 1.38 ± 0.15 %ID/g
- Kidney uptake (KB tumor-bearing mice [5]; 2 h p.i., i.v., n = 3): 51.92 ± 3.10 %ID/g
- Liver uptake (KB tumor-bearing mice [5]; 2 h p.i., i.v., n = 3): 11.88 ± 1.22 %ID/g
- Lung uptake (KB tumor-bearing mice [5]; 2 h p.i., i.v., n = 3): 2.78 ± 0.57 %ID/g
- Muscle uptake (KB tumor-bearing mice [5]; 2 h p.i., i.v., n = 3): 1.27 ± 0.03 %ID/g
- Spleen uptake (KB tumor-bearing mice [5]; 2 h p.i., i.v., n = 3): 3.08 ± 0.42 %ID/g
- Stomach uptake (KB tumor-bearing mice [5]; 2 h p.i., i.v., n = 3): 2.00 ± 0.33 %ID/g
- Thyroid uptake (KB tumor-bearing mice [5]; 2 h p.i., i.v., n = 3): 0.03 ± 0.01 %ID
- Tumor uptake (KB tumor-bearing mice [5]; 0.5 h p.i., i.v., n = 3): 3.03 ± 0.10 %ID/g
- Tumor uptake (KB tumor-bearing mice [5]; [8]): 1.53 ± 0.10 %ID/g
- Tumor uptake (KB tumor-bearing mice [5]; 2 h p.i., i.v., n = 3): 2.42 ± 0.44 %ID/g
- Visualization of tumor lesions by SPECT/CT (KB tumor-bearing mice [6]): clearly visualized

Structure (SMILES): [C-]#[N+]CCCCCC(=O)NCCNC(=O)CC[C@H](NC(=O)c1ccc(NCc2cnc3nc(N)[nH]c(=O)c3n2)cc1)C(=O)O [CN5FA, N^2-(4-(((2-Amino-4-oxo-3,4-dihydropteridin-6-yl)methyl)amino)benzoyl)-N^5-(2-(6-isocyanohexanamido)ethyl)-L-glutamine]
- Liver uptake (KB tumor-bearing mice [5]; 2 h p.i., labeled under weak acid condition (before the pH was changed to weakly alkaline)): 52.35 ± 1.19 %ID/g
- Solubility of ligand [7]: poor

Reference: PMC8348780, “Preparation and Evaluation of Novel Folate Isonitrile ^99mTc Complexes as Potential Tumor Imaging Agents to Target Folate Receptors” (Molecules, 2021)
